# Test results: patent publication US20220354847A1, “THIAMINE THERAPY FOR FATTY LIVER ASSOCIATED DISEASES” (priority 2019, published 2022)
# What was measured:
# [1] = tested on: hepatic steatosis in lambs grown on the HC diet
# [2] = tested on: lambs grown on the HC diet; details: within one week of treatment; saline-treated HC group 77.2 mg/dL
# [3] = tested on: liver gene expression
# [4] = tested on: circulating leukocytes gene expression; details: FIG. 14A
# [5] = tested on: hepatic steatosis; details: literature (Biomedical Reports 2013; Journal of Hepatology 2016); cited from earlier work
# [6] = tested on: liver histology; details: literature, cited from earlier work; for associated adverse effects: long-term treatment
# [7] = tested on: hepatic alterations caused by a high-fat diet; details: mice; literature; cited from earlier work
compound,measurement,setting,value
Cc1ncc(C[n+]2csc(CCO)c2C)c(N)n1 [thiamine],"hepatocellular steatosis (macro-vesicular or micro-vesicular, histology score 0 to 3)","[1]; HC vs LC and THC, FIG. 11B, 11D",significantly increased in the HC compared to both the LC and THC groups
same,"hepatic steatosis (liver fat content, percentage of wet liver weight)","[1]; THC group, HC diet + thiamine 300 mg/animal s.c. 3 then 5 times a week for the last 85 of 135 days, HC=8.1%, LC 3.8%, P<0.0001",4.8%
same,hepatic index (liver weight/BW),"[1]; THC vs HC, FIG. 11C",no significant effect
same,blood glucose levels,[2],71.7 mg/dL
same,liver expression of APOB,[3]; FIG. 13C,No effects
same,"liver expression of the energy-sensing axis and of the transporters of NEFA (CD36, SLC27A6, SLC27A5)",[3]; FIG. 13D,No effect
same,"liver gene expression of NFKB1, IL1B, CCL2 and IL8",[3]; FIG. 14B,No significant alterations
same,liver expression of catalase,[3]; FIG. 14C,did not affect
same,liver expression of TNF,"[3]; P=0.005, FIG. 14B",lowered
same,liver expression of superoxide dismutase 2 (SOD2),"[3]; P=0.02, FIG. 14C",increase
same,"liver expression of genes coding for AMPK (PRKAA2), PGC-1α (PPARGC1A) and PPAR-α (PPARA)",[3]; THC vs HC,did not affect
same,Perilipin 2 transcripts in liver,"[3]; THC vs HC, P=0.002, FIG. 13C",lowered Perilipin 2 transcripts substantially
same,liver expression of SIRT1,"[3]; between the treatments, FIG. 13A",not different
same,abundance of MTTP transcripts in liver,"[3]; compared with untreated HC group, P=0.001",increased
same,liver expression of glutathione peroxidase 1 (GPX1),[3]; in vivo,no detected treatment effects
same,inflammatory state increased by the HC diet (proinflammatory gene expression),"[3]; leukocyte and liver, FIG. 14 legend",partially alleviated
same,"leukocyte expression of IL1B, TNF and IFNG",[4],No treatment effects
same,leukocyte expression of CXCL8,"[4]; thiamine-treated animals, P=0.05",lower expression
CN(C)C(=N)N=C(N)N [metformin],effect on hepatic steatosis / liver fat,[5],no effect
N[C@@H](CC(=O)N1CCn2c(nnc2C(F)(F)F)C1)Cc1cc(F)c(F)cc1F [Sitagliptin],effect on hepatic steatosis / liver fat,[5],ineffective
CCc1ccc(CCOc2ccc(CC3SC(=O)NC3=O)cc2)nc1 (stereo not drawn) [pioglitazone],associated adverse effects,[6],weight gain
vitamin E,effect on liver histology,[6]; biopsy-proven NASH patients,improve liver histology
same,associated adverse effects,[6],modest increase in the risk for prostate cancer
O=C1CCC(N2C(=O)c3ccccc3C2=O)C(=O)N1 (stereo not drawn) [thalidomide],hepatic alterations caused by a high-fat diet,[7],improvements
